According to patent US20240207461A1, “RADIOACTIVE ANTITUMOR AGENT” (NIHON MEDI-PHYSICS CO., LTD., priority 2021, published 2024):

What was measured:
CD-1 mice [1] = test: Urinary renal toxicity marker (urinary NGAL/creatinine ratio by ELISA); type: in vivo; conditions: urine 16 weeks after administration of ^225Ac-labeled antibody (15 kBq/mouse), n=4 to 5
Experimental: Whether combined administration of a ^225Ac-labeled anti-MUC5AC humanized antibody prepared using ^225Ac-labeled DOTAGA-DBCO and a compound expected to have a renal protective effect (renal protective agent) reduces delayed renal toxicity caused by radiation emitted from ^225Ac or ^225Ac daughter nuclide was evaluated. […]
During the observation period, body weight measurement, blood cell measurement, and renal toxicity marker measurement were performed over time and signs of toxicity were evaluated.
Urine was collected from each individual 16 weeks after the administration of the ^225Ac-labeled anti-MUC5AC humanized antibody, and neutrophil gelatinase-associated lipocalin (NGAL), and creatinine concentration of the urine samples were measured by ELISA. […] The NGAL value corrected for urine concentration was calculated by dividing the obtained NGAL value by the creatinine value (urinary NGAL/creatinine ratio, hereinafter referred to as urinary N/C ratio). The calculated urinary N/C ratio was confirmed using Stat PreClinica (manufactured by Takumi Information Technology Co., Ltd.) for the homoscedasticity of the measured values. […]

CD-1 mice [2] = test: Autopsy and measurement of kidney weight; type: in vivo, mouse; conditions: at autopsy, 184 days from administration
Experimental: The ^225Ac-labeled anti-MUC5AC humanized antibody produced in Production Example 3 was administered to CD-1 mice (5 weeks old, male, manufactured by Charles River Japan), each group n=5 at a dose of 15 kBq/mouse and, as a renal protective agent, any of Zn-DTPA, furosemide, spironolactone, and eplerenone was administered in combination at the dosage, administration method, administration frequency, and initial administration timing shown in Table 1. That is, a group to which only ^225Ac-labeled anti-MUC5AC humanized antibody was administered (Comparative Example 1), a group to which ^225Ac-labeled anti-MUC5AC humanized antibody and each renal protective agent administered in combination (Example 1 to Example 7), and a group to which only a renal protective agent is administered without administration of ^225Ac-labeled anti-MUC5AC humanized antibody (Comparative Examples 2 to 5) were established. The dose of the ^225Ac-labeled anti-MUC5AC humanized antibody, each renal protective agent, and feeding conditions are shown in Table 1. The sustained release tablets used for the transdermal administration group of each renal protective agent were those manufactured by Innovative Research of America, and the mixed feed containing 0.004% of each renal protective agent used was manufactured by Oriental Yeast Co., Ltd.
On the final day of the observation period (184 days from the day of administration of the ^225Ac-labeled anti-MUC5AC humanized antibody), euthanasia and autopsy were performed by exsanguination under isoflurane anesthesia. After autopsy, the kidneys were collected and weighed. The obtained organ weight measurement results (excluding Example 7) were confirmed for the homoscedasticity of the measured values. Since homoscedasticity was confirmed for all items, a significant difference test was performed using the Tukey method, which is a parametric test. The significance level was set to 5%.

Compound: O=C([O-])CN(CCN(CC(=O)[O-])CC(=O)[O-])CCN(CC(=O)[O-])CC(=O)[O-].[Na+].[Na+].[Na+].[Zn+2] [Comparative Example 2, Zn-DTPA]
- N/C ratio (urinary NGAL/creatinine ratio) (CD-1 mice [1]): 1.1 ± 0.60
- body weight (CD-1 mice [2]): 44.48 ± 4.5 g
- kidney weight (CD-1 mice [2]): 0.75 ± 0.12 g
- kidney weight/body weight ratio (CD-1 mice [2]): 0.017 ± 0.001
